From ChEMBL document CHEMBL1138436, “Biological activity and chemistry of taxoids from the Japanese yew, Taxus cuspidata” (J Nat Prod, 2004)

Experiment: Reversal of multidrug resistance in human 2780AD cells assessed as increase in vincristine accumulation relative to verapamil
Type: functional, A2780 ADR
Parameters: concentration or dose not given beside the values

Compound `C=C1[C@@H](OC(=O)CCc2ccccc2)CC[C@@]2(C)[C@@H](OC(C)=O)[C@H](OC(C)=O)C3=C(C)C(=O)C[C@@H]([C@@H](OC(C)=O)[C@H]12)C3(C)C` has an Activity of 227%.
Compound `CC(=O)O[C@@H]1[C@@H]2CC(=O)C(C)=C([C@@H](OC(C)=O)[C@H](OC(C)=O)[C@]3(C)CC[C@H](O)[C@]4(CO4)[C@@H]13)C2(C)C` has an Activity of 28%.
Compound `CC[Si](CC)(CC)O[C@H]1CC[C@@]2(C)[C@@H](OC(C)=O)[C@H](OC(C)=O)C3=C(C)C(=O)C[C@@H]([C@@H](OC(C)=O)[C@@H]2[C@@]12CO2)C3(C)C` has an Activity of 101%.
Compound `C=C1[C@@H](OCOCc2ccccc2)CC[C@@]2(C)[C@@H](OC(C)=O)[C@H](OC(C)=O)C3=C(C)C(=O)C[C@@H]([C@@H](OC(C)=O)[C@H]12)C3(C)C` has an Activity of 150%.
`C=C1[C@@H](O)CC[C@@]2(C)[C@@H](OC(C)=O)[C@H](OC(C)=O)C3=C(C)[C@@H](O)C[C@@H]([C@@H](OC(C)=O)[C@H]12)C3(C)C` showed an Activity of 28%.
For `C=C1[C@@H](OC(=O)/C=C/c2ccccc2)CC[C@@]2(C)[C@@H](OC(=O)/C=C/c3ccccc3)[C@H](OC(=O)/C=C/c3ccccc3)C3=C(C)C(=O)C[C@@H]([C@@H](OC(C)=O)[C@H]12)C3(C)C`, the Activity was 28%.
With `C=C1[C@@H](OC(=O)/C=C/c2ccccc2)CC[C@@]2(C)[C@@H](OC(=O)c3ccccc3)[C@H](OC(=O)c3ccccc3)C3=C(C)C(=O)C[C@@H]([C@@H](OC(C)=O)[C@H]12)C3(C)C` the Activity was 28%.
`C=C1[C@@H](O)CC[C@@]2(C)[C@@H](OC(C)=O)[C@H](OC(C)=O)C3=C(C)[C@@H](OC(=O)c4ccccc4)C[C@@H]([C@@H](OC(C)=O)[C@H]12)C3(C)C` gave an Activity of 87%.
For `C=C1[C@@H](O)CC[C@@]2(C)[C@@H](OC(C)=O)[C@H](OC(C)=O)C3=C(C)[C@@H](OC(=O)/C=C/c4ccccc4)C[C@@H]([C@@H](OC(C)=O)[C@H]12)C3(C)C`, the Activity was 95%.
`C=C1[C@@H](OC(=O)c2ccccc2)CC[C@@]2(C)[C@@H](OC(C)=O)[C@H](OC(C)=O)C3=C(C)[C@@H](O)C[C@@H]([C@@H](OC(C)=O)[C@H]12)C3(C)C` gave an Activity of 88%.
Compound `C=C1[C@@H](O)CC[C@@]2(C)[C@@H](OC(C)=O)[C@H](OC(C)=O)C3=C(C)C(=O)C[C@@H]([C@@H](OC(=O)/C=C/c4ccccc4)[C@H]12)C3(C)C` has an Activity of 98%.
For `C=C1[C@@H](O[Si](CC)(CC)CC)CC[C@@]2(C)[C@@H](OC(C)=O)[C@H](OC(C)=O)C3=C(C)C(=O)C[C@@H]([C@@H](OC(C)=O)[C@H]12)C3(C)C`, the Activity was 91%.
Work on `C=C1[C@@H](OC(=O)c2ccccc2)CC[C@@]2(C)[C@@H](OC(C)=O)[C@H](OC(C)=O)C3=C(C)C(=O)C[C@@H]([C@@H](OC(C)=O)[C@H]12)C3(C)C` yielded an Activity of 87%.
In the case of `C=C1[C@@H](OC(=O)c2ccccc2)CC[C@@]2(C)[C@@H](OC(=O)c3ccccc3)[C@H](OC(=O)c3ccccc3)C3=C(C)C(=O)C[C@@H]([C@@H](OC(C)=O)[C@H]12)C3(C)C`, the Activity is reported as 28%.
Work on `C=C1[C@@H](O)CC[C@@]2(C)[C@@H](OC(C)=O)[C@H](OC(C)=O)C3=C(C)[C@H](O)C[C@@H]([C@@H](OC(C)=O)[C@H]12)C3(C)C` yielded an Activity of 28%.
For `CC[Si](CC)(CC)O[C@H]1CC[C@@]2(C)[C@@H](OC(C)=O)[C@H](OC(C)=O)C3=C(C)C(=O)C[C@@H]([C@@H](OC(C)=O)[C@@H]2[C@]12CO2)C3(C)C`, the Activity was 102%.
`CC(=O)O[C@@H]1[C@@H]2CC(=O)C(C)=C([C@@H](OC(C)=O)[C@H](OC(C)=O)[C@]3(C)CC[C@H](OC(=O)/C=C/c4ccccc4)[C@@]4(CO4)[C@@H]13)C2(C)C` showed an Activity of 139%.
`C=C1[C@@H](OC(=O)/C=C/c2ccccc2)CC[C@@]2(C)[C@@H](OC(=O)/C=C/c3ccccc3)[C@H](OC(=O)/C=C/c3ccccc3)C3=C(C)C(=O)C[C@@H]([C@@H](OC(=O)/C=C/c4ccccc4)[C@H]12)C3(C)C` gave an Activity of 28%.
With `CC(=O)O[C@@H]1[C@@H]2CC(=O)C(C)=C([C@@H](OC(C)=O)[C@H](OC(C)=O)[C@]3(C)CC[C@H](O)[C@@]4(CO4)[C@@H]13)C2(C)C` the Activity was 28%.
In the case of `C=C1[C@@H](OC(=O)C[C@H](c2ccccc2)N(C)C)C[C@H](OC(C)=O)[C@]2(C)[C@@H]1C[C@@H]1C[C@H](OC(C)=O)C(C)=C([C@@H](OC(C)=O)[C@@H]2OC(C)=O)C1(C)C`, the Activity is reported as 114%.
Work on `C=C1[C@@H](OC(=O)/C=C/c2ccccc2)CC[C@@]2(C)[C@@H](OC(C)=O)[C@H](OC(C)=O)C3=C(C)[C@@H](OC(=O)/C=C/c4ccccc4)C[C@@H]([C@@H](OC(C)=O)[C@H]12)C3(C)C` yielded an Activity of 28%.
For `C=C1[C@@H](OC(=O)C[C@H](c2ccccc2)N(C)C)CC[C@]2(C)[C@@H]1C[C@@H]1C[C@H](OC(C)=O)C(C)=C([C@@H](OC(C)=O)[C@@H]2OC(C)=O)C1(C)C`, the Activity was 119%.
`C=C1[C@@H](OC(=O)c2ccccc2)CC[C@@]2(C)[C@@H](OC(C)=O)[C@H](OC(C)=O)[C@@]34[C@H](C)C(=O)C[C@@H]([C@@H](OC(C)=O)[C@@]132)C4(C)C` gave an Activity of 125%.
`C=C1[C@@H](OC(=O)/C=C/c2ccccc2)CC[C@@]2(C)[C@H]3OC(C)(C)O[C@@H]3C3=C(C)C(=O)C[C@@H]([C@@H](OC(=O)c4ccccc4)[C@H]12)C3(C)C` showed an Activity of 28%.
Compound `C=C1[C@@H](OC(=O)/C=C/c2ccccc2)CC[C@@]2(C)[C@H]3OC(C)(C)O[C@@H]3C3=C(C)C(=O)C[C@@H]([C@@H](OC(=O)/C=C/c4ccccc4)[C@H]12)C3(C)C` has an Activity of 28%.
Compound `C=C1[C@@H](OC(=O)/C=C/c2ccccc2)C[C@H](OC(C)=O)[C@]2(C)[C@@H]1C[C@@H]1C[C@H](OC(C)=O)C(C)=C([C@@H](OC(C)=O)[C@@H]2OC(C)=O)C1(C)C` has an Activity of 108%.
`C=C1[C@@H](OC(=O)/C=C/c2ccccc2)C[C@H](OC(C)=O)[C@]2(C)[C@@H]1C[C@@H]1C[C@H](O)C(C)=C([C@@H](OC(C)=O)[C@@H]2OC(C)=O)C1(C)C` [TAXEZOPIDINE H] showed an Activity of 106%.
`C=C1[C@@H](OC(=O)C[C@H](c2ccccc2)N(C)C)CC[C@@]2(C)[C@@H](OC(C)=O)[C@H](OC(C)=O)C3=C(C)C(=O)C[C@@H]([C@@H](OC(C)=O)[C@H]12)C3(C)C` [TAXINE II] gave an Activity of 95%.
With `CC(=O)O[C@H]1C[C@H]2[C@@H](OC(C)=O)/C=C3\C[C@](C)(C(=O)[C@H](O)C(=C1C)C2(C)C)[C@@H](OC(C)=O)C[C@@H]3OC(=O)/C=C/c1ccccc1` [TAXUSPINE B] the Activity was 96%.
Work on `C=C1[C@@H](OC(=O)/C=C/c2ccccc2)CC[C@@]2(C)[C@@H](OC(C)=O)[C@H](OC(C)=O)[C@@]34[C@H](C)C(=O)C[C@@H]([C@@H](OC(C)=O)[C@@]132)C4(C)C` [TAXUSPINE C] yielded an Activity of 104%.
`C=C1[C@@H](OC(=O)/C=C/c2ccccc2)C[C@H](OC(C)=O)[C@]2(C)[C@@H]1C[C@]1(C(C)(C)O)C[C@H](OC(C)=O)C(C)=C1[C@@H](OC(C)=O)[C@@H]2OC(C)=O` [TAXUSPINE J] gave an Activity of 114%.
`CC(=O)OC/C1=C\[C@H](OC(C)=O)[C@@H]2C[C@H](OC(C)=O)C(C)=C([C@@H](O)/C(OC(C)=O)=C(\C)[C@@H](OC(C)=O)C[C@@H]1OC(=O)/C=C/c1ccccc1)C2(C)C` [TAXUSPINE X] gave an Activity of 105%.
